# Reference: patent publication US20250195461A1, “Fibrate Compositions for Treating Inflammation and Neuroinflammation” (TRx Biosciences Limited, priority 2022, published 2025)
# What was measured:
# [1] = cited from earlier work
# [2] = reported value; cited from earlier work
# [3] = Miscibility / self-emulsification in dissolution media modelling ICH dissolution testing; format: physicochemical; details: 1 g of 100% or 75% preparation in 1 L PBS with […] curcumin, 37° C., 300 rpm 10 min, then 10 min without stirring
# Protocol: To assess whether oleic acid could self-emulsify at the concentrations used in the disclosed pharmaceutical compositions, experiments was performed that were designed to model dissolution testing according to International Council for Harmonisation (ICH) guidelines. One liter of a dissolution media comprising phosphate buffered saline (PBS) and 2.5% curcumin was warmed to 37° C. and constant stirring at 300 rpm maintained. Curcumin was added as a coloring agent and was very effective at visualizing the distribution of lipids through the dissolution media. Miscibility experiments were performed using two concentrations of oleic acid nominally above the CMC concentration for this fatty acid. In one series of experiments, 1 g of 100% oleic acid was added to the dissolution media. The control compound was 1 g of 100% MAISINE™ CC. In a second series of experiments 1 g of 75% oleic acid (diluted with 250 mg of MAISINE™ CC) was added to the dissolution media. The control compound was 1 g of 75% MAISINE™ CC. The miscibility of oleic acid and MAISINE™ CC was assessed by observing the dissolution media for 10 minutes with constant stirring and then 10 minutes without stirring. Photographs were taken at time 0, 1, 2, 3, 4, 5 and 10 minutes during the stirring phase and 2, 4 and 10 minutes after stirring ceased.
Structure (SMILES),log P [1],critical micellar concentration (CMC) [2] [mM],miscibility in dissolution media [3]
CC(C)(Oc1ccc(CCNC(=O)c2ccc(Cl)cc2)cc1)C(=O)O [bezafibrate],4.0,–,–
CC(C)(Oc1ccc(C2CC2(Cl)Cl)cc1)C(=O)O (centres unmarked) [ciprofibrate],3.6,–,–
CCC(C)(Oc1ccc(C2(c3ccc(OC(C)(CC)C(=O)O)cc3)CCCCC2)cc1)C(=O)O (centres unmarked) [clinofibrate],7.5,–,–
CCOC(=O)C(C)(C)Oc1ccc(Cl)cc1 [clofibrate],3.4,–,–
CN(C)C(=O)CCCOC(=O)C(C)(C)Oc1ccc(Cl)cc1 [clofibride],2.8,–,–
CC(C)(Oc1ccc(Cl)cc1)C(=O)OCCOC(=O)c1cccnc1 [etofibrate],3.5,–,–
CC(C)(Oc1ccc(C(=O)c2ccc(Cl)cc2)cc1)C(=O)O [fenofibric acid],4.4,–,–
Cc1ccc(C)c(OCCCC(C)(C)C(=O)O)c1 [gemfibrozil],4.4,–,–
CC(C)(Oc1ccc(C2CCCc3ccccc32)cc1)C(=O)O (centres unmarked) [nafenopin],4.9,–,–
CCCCCCCC/C=C\CCCCCCCC(=O)O [oleic acid],–,2.3,not miscible
CC(C)(Oc1ccc(Cl)cc1)C(=O)OCCCOC(=O)c1cccnc1 [ronifibrate],3.9,–,–
CC(C)(Oc1ccc(Cl)cc1)C(=O)OCCCOC(=O)C(C)(C)Oc1ccc(Cl)cc1 [simfibrate],6.2,–,–
CCCCCCCCCCCCCCCCCC(=O)[O-].[Na+] [sodium stearate],–,0.071,–
